# From publication PMC10206040, “Identification of novel anti-amoebic pharmacophores from kinase inhibitor chemotypes” (Frontiers in Microbiology, 2023)
# Read-outs that look alike come from different tables or passages of the source.
# Key:
# [1] = system: Acanthamoeba castellanii T4 isolate (ATCC 50370) trophozoites; test: CellTiter-Glo 2.0 trophocidal assay, A. castellanii; assay type: cell-based; conditions: read-out: Acanthamoeba castellanii EC50 ± SD
# Excerpt: This isolate was purchased from American Type Culture Collection (ATCC). […] For sub-culturing, cells were mechanically harvested to detach the cells from the culture flasks.
# [2] = system: Naegleria fowleri (ATCC 30215) trophozoites; test: microbe, parasite or virus in culture
# Protocol: Trophozoites were routinely grown axenically at 34°C, 5% CO2, in Nelson’s complete medium (NCM) in non-vented 75 cm^2 tissue culture flasks (Olympus), until the cells were 80–90% confluent. For sub-culturing, cells were placed on ice to detach the cells from the culture flasks. […] Complete NCM media is prepared by the addition of 10% fetal bovine serum (FBS) and 100 U/mL penicillin, and 100 μg/mL streptomycin antibiotics.
# Trophozoites were routinely cultured as described above and only logarithmic trophozoites were used.
# All assays were incubated at each of the parasites’ representative growth temperatures, described above, for 72 h. At the 72-h time point, 25 μL of CellTiter-Glo 2.0 reagent was added to all wells of the 96-well plates by hand. The plates were protected from light and contents were mixed using an orbital shaker at 300 rpm at room temperature for 2 min to induce cell lysis. After shaking, the plates were equilibrated at room temperature for 10 min to stabilize the luminescent signal. The ATP luminescent signal (relative light units; RLUs) were measured […] with a SpectraMax I3X plate reader (Molecular Devices, Sunnyvale, CA, United States). […] Values reported are from a minimum of three biological replicates with standard deviation.
# MRC5 cells = test: Human fetal lung fibroblast (MRC5) cell cytotoxicity assay (resazurin); conditions: Table S2
# Protocol: (§1) Intermediate plates were made as described, adding 95 μL of DMEM complete media to 5 μL of compound per well setting a 5% DMSO amount. Log-phase MRC5 cells were removed from a T-75 TC flask using TrypLE® Express (Thermo®) and dispersed by gentle pipetting. Cell density was adjusted to working concentration in prewarmed DMEM medium: 25,000 cells in 90 μL of culture were plated in 96-well transparent Nunclon plates and allowed to settle for 24 h at 37°C and 5% CO2. […] Plates were incubated for 48 h at 37°C and 5% CO2. At 4 h prior to fluorescence measurement, 20 μL of 500 μM resazurin solution was added.
# (§2) A four-parameter equation was used to fit the dose–response curves and determination of EC50 by SigmaPlot ® 13.0 software. Assays were performed in duplicate at least twice for positive compounds, to achieve a minimal […] per dose response.
# [3] = system: Balamuthia mandrillaris (CDC:V039; ATCC 50209) trophozoites; test: CellTiter-Glo 2.0 trophocidal assay, B. mandrillaris; assay type: cell-based; conditions: Balamuthia mandrillaris, ATCC50209, 72 h, read-out: Balamuthia mandrillaris EC50 ± SD
# Excerpt: For sub-culturing, 0.25% Trypsin–EDTA (Gibco) cell detachment reagent was used to detach the cells from the culture flasks.
# [4] = Human fetal lung fibroblast (MRC5) cell cytotoxicity assay (resazurin); conditions: human
# Protocol: as §1, §2
# THP-1 = test: Cytotoxicity assay in THP-1 (MTT); assay type: cell-based; conditions: Table S2, 72 h, maximal concentration 50 μM
# Protocol: Cytotoxicity assay in TH P-1. Cellular toxicity of all compounds was determined using the colorimetric MTT-based assay after incubation at 37 °C for 72 h in the presence of increasing concentrations of compounds (final maximal concentration was 50 μM in 0.5% DMSO per well) [ 1] . The results are expressed […]
# cells. Assays were performed in duplicate at least twice to achieve a minimal n=3 per dose response. […]
# Cytotoxicity assay in THP-1. Cellular toxicity of all compounds was determined using the colorimetric MTT-based assay after incubation at 37 °C for 72 h in the presence of increasing concentrations of compounds (final maximal concentration was 50 μM in 0.5% DMSO per well). […] Assays were performed in duplicate at least twice to achieve a minimal n=3 per dose response.
# [5] = Acanthamoeba castellanii, ATCC50370, 72 h, logarithmic trophozoites, 72 h, n = 3
# [6] = logarithmic trophozoites, 72 h, n = 3
# [7] = Naegleria fowleri, ATCC30215, 72 h, read-out: Naegleria fowleri EC50 ± SD, logarithmic trophozoites, 72 h, n = 3 (converted)
# [8] = Acanthamoeba castellanii, ATCC50370, 72 h
# [9] = Naegleria fowleri, 72 h, read-out: Naegleria fowleri EC50 ± SD, logarithmic trophozoites, 72 h, n = 3 (converted)
# [10] = MRC5 cells (human fetal lung fibroblasts)
# [11] = read-out: Naegleria fowleri EC50 ± SD, logarithmic trophozoites, 72 h, n = 3
smiles,measurement,setting,value
"Nc1c(-c2ccccn2)nc2cc(F)ccn12 [Compound 3a, 7-Fluoro-2-(pyridin-2-yl)imidazo[1,2-a]pyridin-3-amine]",EC50,[1]; [5],< 10 µM
same,EC50,[1]; [6],6.94 ± 0.11 µM
same,EC50,[2]; [7],15 ± 4.7 µM
same,MRC5 TC50 ± Standard Deviation,MRC5 cells,64 µM
c1ccc(Nc2nccc(-c3cnn4ccccc34)n2)cc1 [Compound 2a],EC50,[1]; [8],13 ± 6.9 µM
same,EC50,[2]; [9],0.94 ± 0.17 µM
same,EC50,[3],4.2 ± 0.6 µM
same,CC50 at 48 h,[4]; [10],> 50 µM
"COc1ccn2c(Nc3ccccc3F)c(-c3cccnc3)nc2c1 [Compound 3g, N-(2-fluorophenyl)-7-methoxy-2-(pyridin-3-yl)imidazo[1,2-a]pyridin-3-amine]",EC50,[2]; [7],> 20 µM
same,MRC5 TC50 ± Standard Deviation,MRC5 cells,64 µM
CC(C)c1nn2ncccc2c1-c1ccnc(Nc2cccc(C#N)c2)n1 [Compound 2n],EC50,[2]; [9],1.3 ± 0.33 µM
same,CC50 at 48 h,[4]; [10],33 ± 2 µM
"CC(C)Nc1c(-c2ccccn2)nc2cc(C(F)(F)F)ccn12 [Compound 3f, N-(Propan-2-yl)-2-(pyridin-2-yl)-7-(trifluoromethyl)imidazo[1,2-a]pyridin-3-amine]",EC50,[2]; [7],> 20 µM
same,MRC5 TC50 ± Standard Deviation,MRC5 cells,53 µM
N#Cc1cccc(Nc2nccc(-c3c(C4CC4)nn4ncccc34)n2)c1 [Compound 2o],EC50,[2]; [9],9.6 ± 6.6 µM
same,CC50 at 48 h,[4]; [10],> 50 µM
CN(C)S(=O)(=O)c1ccc(N/N=C2\C(=O)Nc3ccccc32)cc1 [Compound S30],EC50,[1]; [5],> 20 µM
same,EC50,[2]; [9],> 20 µM
same,EC50,[3]; [6],> 20 µM
same,MRC5 TC50 ± Standard Deviation,MRC5 cells; in µM,> 50
same,THP-1 TC50 ± Standard Deviation,THP-1,> 50
COCc1nn2ncccc2c1-c1ccnc(Nc2cccc(C#N)c2)n1 [Compound 2l],EC50,[2]; [11],≤ 14 µM
same,EC50,"[2]; read-out: Naegleria fowleri EC50 ± SD, logarithmic trophozoites, 72 h, n = 3, listed as 2 l",1.1 ± 0.16 µM
same,CC50 at 48 h,[4]; [10],> 50 µM
COc1ccc2c(-c3ccnc(NC4CCC(O)CC4)n3)c(C3CC3)nn2n1 (centres unmarked) [Compound 2u],EC50,[3],9.4 ± 3.4 µM
same,CC50 at 48 h,[4]; [10],> 50 µM
c1cnn2ncc(-c3ccnc(NC4CCCCC4)n3)c2c1 [Compound 2p],EC50,[2]; [9],1.4 ± 0.76 µM
same,EC50,[3],7.5 ± 3.1 µM
same,CC50 at 48 h,[4]; [10],> 50 µM
c1cncc(Nc2nccc(-c3c(C4CC4)nn4ncccc34)n2)c1 [Compound 2r],EC50,[2]; [9],16 ± 3.7 µM
same,EC50,[3],13 ± 7.5 µM
same,CC50 at 48 h,[4]; [10],> 50 µM
"COc1ccn2c(Nc3ccccc3F)c(-c3cnn(C)c3)nc2c1 [Compound 3b, N-(2-Fluorophenyl)-7-methoxy-2-(1-methyl-1H-pyrazol-4-yl)imidazo[1,2-a]pyridin-3-amine]",EC50,[2]; [7],13 ± 6.7 µM
same,MRC5 TC50 ± Standard Deviation,MRC5 cells,64 µM
COc1ccn2c(Nc3ccccc3F)c(-c3ccncn3)nc2c1 [Compound 3j],EC50,[2]; [7],> 20 µM
same,MRC5 TC50 ± Standard Deviation,MRC5 cells,46 µM
"COc1ccn2c(Nc3ccccc3F)c(-c3ncccn3)nc2c1 [Compound 3i, N-(2-Fluorophenyl)-7-methoxy-2-(pyrimidin-2-yl)imidazo[1,2-a]pyridin-3-amine]",EC50,[2]; [7],> 20 µM
same,MRC5 TC50 ± Standard Deviation,MRC5 cells,49 µM
"COc1ccn2c(Nc3ccccc3F)c(-c3cccc(C)n3)nc2c1 [Compound 3c, N-(2-Fluorophenyl)-7-methoxy-2-(6-methylpyridin-2-yl)imidazo[1,2-a]pyridin-3-amine]",EC50,[1]; [5],> 20 µM
same,EC50,[2]; [7],> 20 µM
same,MRC5 TC50 ± Standard Deviation,MRC5 cells,64 µM
N#Cc1cccc(Nc2cccc(-c3cnn4ncccc34)n2)c1 [Compound 2f],EC50,[1]; [8],> 20 µM
same,EC50,[3],> 20 µM
same,CC50 at 48 h,[4]; [10],> 50 µM
"Fc1ccn2c(NC3CC3)c(-c3ccccn3)nc2c1 [Compound 3d, N-Cyclopropyl-7-fluoro-2-(pyridin-2-yl)imidazo[1,2-a]pyridin-3-amine]",EC50,[1]; [5],> 20 µM
same,EC50,[2]; [7],> 20 µM
same,MRC5 TC50 ± Standard Deviation,MRC5 cells,64 µM
OC1CCC(Nc2nccc(-c3cnn4nc(N5CCOCC5)ccc34)n2)CC1 (centres unmarked) [Compound 2k],EC50,[2]; [9],≤ 14 µM
same,EC50,[2]; [11],7.5 ± 2.5 µM
same,EC50,[3],> 20 µM
same,CC50 at 48 h,[4]; [10],> 50 µM
COc1ccc2c(-c3ccnc(NC4CCC(O)CC4)n3)cnn2n1 (centres unmarked) [Compound 2s],EC50,[3],11 ± 4.2 µM
same,CC50 at 48 h,[4]; [10],> 50 µM
N#Cc1cccc(Nc2cccc(-c3cnn4ncccc34)c2)c1 [Compound 2g],EC50,[1]; [8],> 20 µM
same,EC50,[3],> 20 µM
same,CC50 at 48 h,[4]; [10],19 ± 1 µM
"COc1ccn2c(NC(=O)c3ccccc3F)c(-c3ccccn3)nc2c1 [Compound 3h, 2-Fluoro-N-[7-methoxy-2-(pyridin-2-yl)imidazo[1,2-a]pyridin-3-yl]benzamide]",EC50,[2]; [7],> 20 µM
same,MRC5 TC50 ± Standard Deviation,MRC5 cells,64 µM
c1ccc(Nc2nccc(-c3cnn4ncccc34)n2)nc1 [Compound 2t],EC50,[3],10 ± 2.8 µM
same,CC50 at 48 h,[4]; [10],> 50 µM
N#Cc1cccc(Nc2nccc(-c3c(C4CC4)nn4nc(N5CCOCC5)ccc34)n2)c1 [Compound 2c],EC50,[1]; [8],5.9 ± 0.17 µM
same,EC50,[2]; [9],3.5 ± 0.7 µM
same,CC50 at 48 h,[4]; [10],> 50 µM
COc1ccc(-c2nn3ncccc3c2-c2ccnc(Nc3ccccc3)n2)cc1 [Compound 2i],EC50,[2]; [9],17 ± 3.5 µM
same,CC50 at 48 h,[4]; [10],> 50 µM
"COc1ccn2c(NC(=O)c3ccc(F)cn3)c(-c3ccccn3)nc2c1 [Compound 3k, 5-Fluoro-N-[7-methoxy-2-(pyridin-2-yl)imidazo[1,2-a]pyridin-3-yl]pyridine-2-carboxamide]",EC50,[2]; [7],> 20 µM
same,MRC5 TC50 ± Standard Deviation,MRC5 cells,64 µM
COc1cccc(Nc2nccc(-c3cnn4nc(N5CCOCC5)ccc34)n2)c1 [Compound 2j],EC50,[3],4.9 ± 1.6 µM
same,CC50 at 48 h,[4]; [10],> 50 µM
Cc1cc(-c2cnn3ncccc23)nc(Nc2cccc(C#N)c2)n1 [Compound 2e],EC50,[1]; [8],> 20 µM
same,CC50 at 48 h,[4]; [10],> 50 µM
CC(O)c1nn2ncccc2c1-c1ccnc(Nc2cccc(C#N)c2)n1 (centres unmarked) [Compound 2m],EC50,[2]; [9],17 ± 0.76 µM
same,CC50 at 48 h,[4]; [10],> 50 µM
Fc1ccc(Nc2nccc(-c3c(C4CC4)nn4ncccc34)n2)cc1F [Compound 2q],EC50,[2]; [7],12 ± 7.8 µM
same,CC50 at 48 h,[4],> 50 µM
same,MRC5 TC50 ± Standard Deviation,MRC5 cells; in µM,> 50
COc1cccc(Nc2nccc(-c3cnn4ccccc34)n2)c1 [Compound 2h],EC50,[3],3.3 ± 0.97 µM
same,CC50 at 48 h,[4]; [10],> 50 µM
"COc1ccn2c(NC(=O)c3cccc(F)c3)c(-c3ccccn3)nc2c1 [Compound 3l, 3-Fluoro-N-[7-methoxy-2-(pyridin-2-yl)imidazo[1,2-a]pyridin-3-yl]benzamide]",EC50,[2]; [7],> 20 µM
same,MRC5 TC50 ± Standard Deviation,MRC5 cells,59 µM
